Experimental data from ChEMBL document CHEMBL1201862, “PubChem BioAssay data set” (2004).
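Interpolation was linear, between the two tested concentrations surrounding the appropriate level; five concentrations were tested over 48 hours in 96-well plates. GI50: concentration for 50% inhibition of growth.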 Activity calls are given as the source filed them. Rule as the data show it: active = GI50 up to about 1.1 µM and inactive = higher.

How the values were obtained:
Assay in all cases: NCI tumour cell line growth inhibition, 48 h
[1] = tested on: BT-549
[2] = tested on: MDA-N
[3] = tested on: DMS-114
[4] = tested on: KM-20L2
[5] = tested on: HOP-18
[6] = tested on: SNB-78
[7] = tested on: DLD-1
[8] = tested on: RXF 631
[9] = tested on: XF498

Row | Structure (SMILES) | GI50 [1] | GI50 [2] | other results
1 | c1ccc2cc(-c3cc(-c4cc(-c5ccc6ccccc6c5)on4)no3)ccc2c1 | > 100 µM (inactive) | > 100 µM (inactive) | 
2 | CCCCSCc1nc2nc(Cl)c(Cl)nc2[nH]1 | 27.1 µM (inactive) | 25.1 µM (inactive) | 
3 | Nc1ccc(S(=O)(=O)c2ccc(NC(=O)c3cccnc3)cc2)cc1 | 92 µM (inactive) | > 100 µM (inactive) | 
4 | COc1ccc2[nH]c3c4c(ccc3c2c1)C(=O)C=CC4=O | 27.8 µM (inactive) | 16.2 µM (inactive) | GI50 [3]: 11.8 µM (inactive); GI50 [4]: 18.9 µM (inactive); GI50 [5]: 10.8 µM (inactive); GI50 [6]: 16.3 µM (inactive); GI50 [7]: 2.54 µM (inactive)
5 | CCOc1cc2c(cc1O)/C(=N\N)C[C@@H]1[C@@H]2CC[C@]2(C)[C@@H](O)CC[C@@H]12 | 4.26 µM (inactive) | 0.261 µM (active) | 
6 | O=C(CN1CCCCC1)Nc1ccc2sc3ccccc3c(=O)c2n1 | 19.3 µM (inactive) | 13.4 µM (inactive) | 
7 | Nc1ccc(S(=O)(=O)Nc2nc3ccccc3nc2N2CCCCCC2)cc1 | 7.23 µM (inactive) | 32.5 µM (inactive) | 
8 | CSc1nn(C)cc2ncnc1-2 | > 100 µM (inactive) | > 100 µM (inactive) | 
9 | O=C1Nc2c(Cl)cccc2/C1=N/Nc1ccccc1[N+](=O)[O-] | 28 µM (inactive) | 25.6 µM (inactive) | 
10 | C1=Cc2cccc3occ(c23)C=C1 | 39.9 µM (inactive) | > 100 µM (inactive) | 
11 | CCOC(=O)n1c2ccccc2c2c(O)c(OC)c3c(c21)C(=O)NC3=O | > 100 µM (inactive) | > 100 µM (inactive) | 
12 | CCOc1c(OC)cc(CNNc2nccs2)cc1OC | 41.5 µM (inactive) | > 100 µM (inactive) | 
13 | CC[C@@]1(O)C[C@H](OC2CC(N(C)C)C(O)C(C)O2)c2c(O)c3c(c(O)c2[C@H]1OC1CC(N(C)C)C(O)C(C)O1)C(=O)c1cccc(O)c1C3=O (stereo not given in full) | 0.041 µM (active) | 0.0363 µM (active) | 
14 | COc1cc(/C=C2\C[C@H]3[C@@H]4CC=C5C[C@@H](O)CC[C@]5(C)[C@H]4CC[C@]3(C)[C@H]2O)cc(OC)c1OC | 15.4 µM (inactive) | 21.9 µM (inactive) | 
15 | Cc1nc(-c2cccnc2)sc1C(=O)/C=C/c1cccc([N+](=O)[O-])c1 |  |  | GI50 [3]: > 100 µM (inactive); GI50 [4]: > 100 µM (inactive); GI50 [8]: > 100 µM (inactive); GI50 [5]: > 100 µM (inactive); GI50 [7]: > 100 µM (inactive)
16 | CSC(=S)N/N=C(\C)c1cccc(C)n1 | 5.19 µM (inactive) | 0.925 µM (active) | 

Row | Structure (SMILES) | GI50 [1] | GI50 [2] | other results
17 | CC(=O)NC1=C(NC(C)(C)C)C(=O)c2ccccc2C1=O |  |  | GI50 [3]: 20.6 µM (inactive); GI50 [4]: 18.7 µM (inactive); GI50 [5]: 14.8 µM (inactive); GI50 [6]: 31 µM (inactive); GI50 [7]: 15.9 µM (inactive); GI50 [9]: 11.1 µM (inactive)
18 | O=C1CCCN1C(=O)CS(=O)(=O)c1ccccc1 | > 100 µM (inactive) | > 100 µM (inactive) | 
19 | CC(=O)OCC1OC(O[C@@H]2C[C@H]3C(C)(C)[C@@H](OC(C)=O)CC[C@]3(C)[C@H]3CC[C@]45C[C@]4(CC[C@H]5[C@@H](C)C[C@@H](O)[C@H](O)C(C)(C)F)[C@@]32C)C(O)C(O)C1O (stereo not given in full) | 1.72 µM (inactive) | 1.63 µM (inactive) | 
20 | Cc1cccc(C)c1NC(=O)/C(Cc1nc2ccc([N+](=O)[O-])cc2nc1O)=N\NC(N)=O | 7.19 µM (inactive) |  | 
21 | Nc1ccc(-c2ncc3cc(-c4cccc(-c5cc6cnc(-c7ccc(N)cc7)nc6c6ccccc56)c4)c4ccccc4c3n2)cc1 | > 100 µM (inactive) | > 100 µM (inactive) | 
22 | S=C(N/N=C(/c1ccccc1)c1ccccn1)N1CCCCCC1 | 0.564 µM (active) | < 0.044 µM (active) | 
23 | O=c1cc(NCC2CCCCC2)[nH]c(=O)[nH]1 | > 100 µM (inactive) | > 100 µM (inactive) | 
24 | N#CC1=C(N)OC(c2cccc([N+](=O)[O-])c2)C1(C#N)C#N (stereo not given) |  | 23.9 µM (inactive) | 
25 | O=C1C(c2ccccc2)=[N+]([O-])c2cc([N+](=O)[O-])ccc21 |  |  | GI50 [3]: 14.3 µM (inactive); GI50 [4]: 23.5 µM (inactive); GI50 [5]: 88.1 µM (inactive); GI50 [7]: 21.6 µM (inactive); GI50 [9]: 24 µM (inactive)
26 | COc1cc(OC)c([C@@H]2OC(=O)C3C2C(=O)O[C@H]3c2cc(OC)c(OC)cc2OC)cc1OC (stereo not given in full) |  |  | GI50 [3]: 72.4 µM (inactive); GI50 [4]: > 100 µM (inactive); GI50 [5]: > 100 µM (inactive); GI50 [6]: > 100 µM (inactive); GI50 [7]: > 100 µM (inactive); GI50 [9]: > 100 µM (inactive)
27 | Cc1cccc(-n2c(=S)[nH]c3c(sc(=O)n3-c3ccccc3C)c2=O)c1 |  |  | GI50 [3]: > 100 µM (inactive); GI50 [4]: > 100 µM (inactive); GI50 [8]: > 100 µM (inactive); GI50 [5]: > 100 µM (inactive); GI50 [6]: > 100 µM (inactive); GI50 [7]: > 100 µM (inactive)
28 | COc1ccc(/C=N/NC(=O)c2ccccc2Nc2ccccc2C(=O)N/N=C/c2ccc(OC)cc2)cc1 | > 100 µM (inactive) | > 100 µM (inactive) | 
29 | COC(=O)/C(=N/NC(C)(C)C)C(C(=O)OC)C(=O)C(=O)Nc1nc2ccc([N+](=O)[O-])cc2s1 (stereo not given) |  |  | GI50 [3]: > 100 µM (inactive); GI50 [4]: > 100 µM (inactive); GI50 [6]: > 100 µM (inactive); GI50 [9]: > 100 µM (inactive)
30 | N/C(=N\N=C\c1cc2ccccc2s1)c1cnccn1 | > 100 µM (inactive) | > 100 µM (inactive) | 
31 | COc1ccc(CCCNC(=O)Cc2ccccc2CO)cc1OC | > 100 µM (inactive) | > 100 µM (inactive) | 
32 | C=CCCC(OCOCCOC)c1cc(C)c(O[Si](C)(C)C(C)(C)C)c(C)c1 (stereo not given) |  |  | GI50 [3]: 11.7 µM (inactive); GI50 [4]: 13.2 µM (inactive); GI50 [8]: 15.4 µM (inactive); GI50 [5]: 28.6 µM (inactive); GI50 [6]: > 100 µM (inactive)
